Results from article PMC5515969, “Effects of 31 FDA approved small-molecule kinase inhibitors on isolated rat liver mitochondria” (Archives of Toxicology, 2016).
Like-named read-outs stand apart in the source and are kept apart here.

Tests used:
[1] = system: isolated rat liver mitochondria; test: Mitochondrial swelling (absorbance at 535 nm); format: biochemical; on Swelling 5XCmax: key: 0 indicates that the drug had no effects (negative)
[2] = system: RCC III; test: RCC III activity in submitochondrial particles; format: biochemical, rat; details: 15 min, DMSO-treated = 100
Outline: (§1)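 Rat submitochondrial particles (1 mg/ml) were treated with test compounds for 15 min. RCC IV, like RCC III, was monitored at 550 nm every 10 s for 2 min, and RCC I/V at 340 nm each minute for 6 min. DMSO samples defined unit activity.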

[3] = cited from earlier work
[4] = target: T1, RCC II (Rattus norvegicus, UniProt P21913+Q641Z9+Q6PCT8+Q920L2); test: RCC II activity in submitochondrial particles; format: biochemical; set-up: key: activity relative to DMSO-treated controls (control set as 1 = 100%); details: DMSO treated samples set as 1
T1 construct: Submitochondrial particles were prepared by subjecting the intact mitochondria to three successive freeze–thaw cycles; from tissue; host or cells: rat liver mitochondria, used as submitochondrial particles
Outline: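 Activity relative to DMSO (set as 1) after 15-min exposure of submitochondrial particles (1 mg/ml) to compound. RCC I is defined as rotenone-sensitive activity and RCC II is followed at 600 nm over 6 min.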

[5] = system: RCC V; test: RCC V activity in submitochondrial particles; format: biochemical, rat; details: for RCC activity V: 15 min, DMSO-treated = 100; on RCC V at 5XCmax: key: 0 indicates that the drug had no effects (negative)
Outline: as §1

[6] = system: isolated rat liver mitochondria; test: Mitochondrial ROS production (CM-H2DCFDA)
[7] = system: isolated rat liver mitochondria; details: positive control alamethicin treated samples
[8] = system: isolated rat liver mitochondria; test: Mitochondrial inner membrane potential (MMP), Rhodamine 123; format: biochemical
Text: Fig. 3 KI effects on mitochondrial inner membrane potential (MMP). […] In a, c, data are means and standard derivations from three separate experiments. *p < 0.05 as compared to DMSO-treated samples at the end of experiments. In b, data are means of two independent experiments

[9] = system: RCC IV; test: RCC IV activity in submitochondrial particles; format: biochemical, rat; details: 15 min, DMSO-treated = 100
Outline: as §1

[10] = system: isolated rat liver mitochondria; test: Mitochondrial oxygen consumption (glutamate/malate or succinate driven, state 4 and state 3); format: biochemical; details: for Glutamate/malate driven respiration State 3 / Glutamate/malate driven respiration State 4 / Succinate-driven respiration State 3 / Succinate-driven respiration State 4: oxygen consumption, DMSO-treated = 1; on State 3 respiration driven by succinate at 10XCmax: key: 0 indicates that the drug had no effects (negative); on State 3 respiration driven by succinate at 1XCmax: key: 0 indicates that the drug had no effects (negative)
Outline: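 Oxygen uptake on glutamate/malate or on succinate defined state 4; ADP added 3 min later gave state 3. Mitochondria isolated from rat liver by differential centrifugation, adjusted to 1 mg/ml and pretreated 5 min with inhibitor (0.1% DMSO final). Values relative to DMSO control, set to 1.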

[11] = Solubility of DMSO stock for 100X/50X Cmax testing; format: physicochemical; details: solubility in DMSO
Text: Supplement 204_2016_1918_MOESM3_ESM.xlsx, sheet "Sheet1" | column: 100 Cmax; 50 Cmax; note

[12] = system: RCC I; test: RCC I activity in submitochondrial particles; format: biochemical, rat; set-up: key to RCC I at 10XCmax / RCC I at 100XCmax / RCC I at 50XCmax / RCC I at 30XCmax / RCC I at 20XCmax: activity relative to DMSO-treated controls (control set as 1 = 100%); details: for RCC activity I: 15 min
Outline: as §1

[13] = ref FDA product labeling, cited from earlier work
[14] = system: RCC I–V; test: Activities of RCC I–V, overall statements; format: biochemical, rat; details: submitochondrial particles
Method: KIs were incubated with submitochondrial particles (1 mg/ml) for 15 min and then RCC I–V activities measured. […] The activities of DMSO-treated samples (controls) were set as 1. […] The difference between the activity from rotenone-containing buffer and rotenone-absent buffer was considered as RCC I activity. […] For measuring RCC I/V and II activity, the changes in absorbance at 340 and 600 nm, respectively, were determined every 1 min for 6 min. For measuring RCC III and RCC IV, the changes in absorbance at 550 nm were measured every 10 s for 2 min.

[15] = system: isolated rat liver mitochondria; test: Mitochondrial toxicity, any endpoint, intact mitochondria and submitochondrial particles; format: biochemical; details: any endpoint
Method: Rats were anesthetized by an intraperitoneal injection of Nembutal and the liver perfused with PBS to remove the blood. The liver was then cut into small pieces and homogenized using a Dounce type homogenizer in the ice-cold isolation buffer (IB) containing 200 mM sucrose, 10 mM Tris-MOPS, 1 mM EGTA (pH 7.4). The sample was then centrifuged at 600g for 10 min. The supernatant was further centrifuged at 7500g for 10 min, and the pellets was washed once with the IB and centrifuged again at 7500g for 10 min to collect mitochondria. […] Before drug treatment, the protein concentration was adjusted to 1 mg/ml using appropriate buffer. […] Briefly, mitochondrial and cytosolic fractions from four different preparations using four rats were diluted using the Laemmli protein loading buffer and subject to SDS-PAGE with 4–20% gradient gels. The proteins were blotted to PVDF membranes and detected using antibodies against GAPDH, ATP5A, UQCRC2, SDHB, and NDUFB8.
The aliquoted stock solutions were kept for less than one month and each tube was used only once. The KIs were added to the mitochondria at 1:1000 dilutions. […] The Cmax data were from clinical trials which used FDA recommend dosages, route of administration, and duration. […] The final concentration of DMSO for drug treatment was always 0.1%, and control treatments were 0.1% DMSO.

[16] = 1XCmax, difference in signal between KI and DMSO treated samples at the end of experiments
[17] = 2.5XCmax, difference in signal between KI and DMSO treated samples at the end of experiments
[18] = 5XCmax, difference in signal between KI and DMSO treated samples at the end of experiments
[19] = 10XCmax, difference in signal between KI and DMSO treated samples at the end of experiments
[20] = 20XCmax, difference in signal between KI and DMSO treated samples at the end of experiments
[21] = human therapeutic Cmax at FDA recommended dosages, ref product labeling and drug approval packages at the official FDA website
[22] = 5XCmax, DMSO treated samples set as 1
[23] = 1XCmax, DMSO treated samples set as 1
[24] = 2.5XCmax, DMSO treated samples set as 1
[25] = 10XCmax, DMSO treated samples set as 1
[26] = 20XCmax, DMSO treated samples set as 1
[27] = up to 100-fold Cmax or highest testable concentration

T1 sequence (Q920L2 35-656): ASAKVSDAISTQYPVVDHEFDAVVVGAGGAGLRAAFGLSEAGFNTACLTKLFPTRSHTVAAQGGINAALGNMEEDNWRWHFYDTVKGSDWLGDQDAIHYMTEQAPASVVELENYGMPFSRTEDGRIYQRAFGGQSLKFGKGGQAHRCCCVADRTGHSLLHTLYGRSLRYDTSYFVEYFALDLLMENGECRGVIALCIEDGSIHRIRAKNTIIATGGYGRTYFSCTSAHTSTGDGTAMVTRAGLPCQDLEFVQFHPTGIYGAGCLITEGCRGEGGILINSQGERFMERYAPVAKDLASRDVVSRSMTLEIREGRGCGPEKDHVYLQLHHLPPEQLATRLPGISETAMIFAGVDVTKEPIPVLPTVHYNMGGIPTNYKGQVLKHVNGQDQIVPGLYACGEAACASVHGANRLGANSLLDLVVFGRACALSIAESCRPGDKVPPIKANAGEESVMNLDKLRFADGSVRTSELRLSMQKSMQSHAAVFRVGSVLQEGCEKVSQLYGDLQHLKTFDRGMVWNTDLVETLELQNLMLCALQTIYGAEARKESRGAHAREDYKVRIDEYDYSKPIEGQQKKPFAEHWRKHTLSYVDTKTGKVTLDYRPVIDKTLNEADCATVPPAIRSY
T1 sequence (P21913 31-282): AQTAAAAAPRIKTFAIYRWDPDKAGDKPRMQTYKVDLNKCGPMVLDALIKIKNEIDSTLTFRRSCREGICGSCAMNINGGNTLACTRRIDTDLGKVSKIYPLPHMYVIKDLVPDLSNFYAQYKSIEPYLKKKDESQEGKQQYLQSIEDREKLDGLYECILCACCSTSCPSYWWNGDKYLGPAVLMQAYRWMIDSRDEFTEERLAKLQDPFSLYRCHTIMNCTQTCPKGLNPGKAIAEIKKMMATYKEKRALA
T1 sequence (Q641Z9 1-169): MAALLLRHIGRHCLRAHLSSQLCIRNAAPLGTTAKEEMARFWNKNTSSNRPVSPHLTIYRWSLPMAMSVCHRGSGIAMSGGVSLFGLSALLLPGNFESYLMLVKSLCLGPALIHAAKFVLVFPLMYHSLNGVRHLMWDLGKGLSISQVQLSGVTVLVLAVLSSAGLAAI
T1 sequence (Q6PCT8 57-159): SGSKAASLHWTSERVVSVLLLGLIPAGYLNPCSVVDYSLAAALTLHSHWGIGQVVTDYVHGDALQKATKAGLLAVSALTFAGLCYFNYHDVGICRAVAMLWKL

SMILES: CCc1cc2c(cc1N1CCC(N3CCOCC3)CC1)C(C)(C)c1[nH]c3cc(C#N)ccc3c1C2=O [Alectinib]
- Swelling 1XCmax [1, 16]: 0
- Swelling 2.5XCmax [1, 17]: 0
- Swelling 5XCmax [1, 18]: 0
- Swelling 10XCmax [1, 19]: 0
- Swelling 20XCmax [1, 20]: 0
- RCC activity III ([2]; 20-fold Cmax): 116.05 ± 4.72 % of control
- Cmax [3, 21]: 1.37 µM
- Cmax (ng or µg/ml) ([3]; human therapeutic maximal blood concentration, ref product labeling): 0.665 µg/mL
- Cmax ([3]; read-out: Cmax at µM, human therapeutic maximal blood concentration, ref product labeling): 1.37 µM
- RCC II at 1.0XCmax ([4]; 1.0XCmax): 0
- RCC II at 2.5XCmax ([4]; 2.5XCmax): 0
- RCC II at 5XCmax ([4]; 5XCmax): 0
- RCC II at 10XCmax ([4]; 10XCmax): 0
- RCC II at 20XCmax ([4]; 20XCmax): 0
- RCC V at 5XCmax [5, 22]: 0
- RCC activity V ([5]; 20-fold Cmax): 106.30 ± 11.74 % of control
- ROS measured by CM-H2DCFDA at 1XCmax [6, 23]: 0
- ROS measured by CM-H2DCFDA at 2.5XCmax [6, 24]: 0
- ROS measured by CM-H2DCFDA at 5XCmax [6, 22]: 0
- ROS measured by CM-H2DCFDA at 10XCmax [6, 25]: 0
- ROS measured by CM-H2DCFDA at 20XCmax [6, 26]: 0
- Cytochrome c release 1XCmax ([7]; 1XCmax): 0
- Cytochrome c release 2.5XCmax ([7]; 2.5XCmax): 0
- Cytochrome c release 5XCmax ([7]; 5XCmax): 0
- Cytochrome c release 10XCmax ([7]; 10XCmax): 0
- Cytochrome c release 20XCmax ([7]; 20XCmax): 0
- MMP measured by Rhodamine 123 at 1XCmax [8, 16]: 0
- MMP measured by Rhodamine 123 at 2.5XCmax [8, 17]: 0
- MMP measured by Rhodamine 123 at 5XCmax [8, 18]: 0
- MMP measured by Rhodamine 123 at 10XCmax [8, 19]: 0
- MMP measured by Rhodamine 123 at 20XCmax [8, 20]: 0
- RCC activity IV ([9]; 20-fold Cmax): 101.46 ± 1.66 % of control
- State 3 respiration driven by succinate at 1XCmax [10, 23]: 0
- State 4 respiration driven by succinate at 1XCmax [10, 23]: 0
- State 3 respiration driven by succinate at 2.5XCmax [10, 24]: 0
- State 4 respiration driven by succinate at 2.5XCmax [10, 24]: 0
- State 3 respiration driven by succinate at 5XCmax [10, 22]: 0
- State 4 respiration driven by succinate at 5XCmax [10, 22]: 0
- State 3 respiration driven by succinate at 10XCmax [10, 25]: 0
- State 4 respiration driven by succinate at 10XCmax [10, 25]: 0
- State 3 respiration driven by succinate at 20XCmax [10, 26]: 0
- State 4 respiration driven by succinate at 20XCmax [10, 26]: 0
- DMSO stock for 50 Cmax ([11]; stock for 50 Cmax): not soluble
- DMSO stock for 100 Cmax ([11]; stock for 100 Cmax): not soluble
- RCC I at 10XCmax [12, 25]: 0
- RCC activity I ([12]; 20-fold Cmax, DMSO-treated = 100): 89.39 ± 2.98 % of control
- RCC I at 20XCmax ([12]; 20XCmax, DMSO-treated = 100): 89.39±2.98

SMILES: CNC(=O)c1cc(Oc2ccc(NC(=O)Nc3ccc(Cl)c(C(F)(F)F)c3)cc2)ccn1 [Sorafenib]
- lowest concentration causing mitochondrial swelling [1]: 2.5 fold Cmax
- effect on mitochondrial swelling ([1]; up to 100-fold Cmax or highest testable concentration, 25 µM calcium chloride): significant mitochondrial swelling
- labeling for DILI ([13]; W&P warnings and precautions, BBW black box warnings): W&P: fatal DILI
- DILI potential (based on labeling) [13]: 1
- RCC activity III ([2]; 5-fold Cmax): 97.60 ± 5.50 % of control
- RCC activity III ([2]; 10-fold Cmax): 94.31 ± 7.47 % of control
- Cmax [3, 21]: 4.3 µM
- lowest concentration inhibiting RCCs [14]: fivefold
- RCCs inhibited [14, 27]: RCC V
- lowest concentration causing significant mitochondrial toxicity [15]: equal to the Cmax
- RCC activity V ([5]; 10-fold Cmax): 65.55 ± 6.34 % of control
- effect on ROS production ([6]; highest tested concentrations): neither of them affected ROS production
- lowest concentration decreasing MMP [8]: onefold
- effect on MMP [8, 27]: decrease in MMP
- RCC activity IV ([9]; 5-fold Cmax): 101.55 ± 3.61 % of control
- RCC activity IV ([9]; 10-fold Cmax): 107.65 ± 10.77 % of control
- Glutamate/malate driven respiration State 3 ([10]; 1-fold Cmax): 1.15 ± 0.09
- Glutamate/malate driven respiration State 4 ([10]; 1-fold Cmax): 2.55 ± 0.27
- Succinate-driven respiration State 3 ([10]; 1-fold Cmax): 1.00 ± 0.10
- Succinate-driven respiration State 4 ([10]; 1-fold Cmax): 1.50 ± 0.21
- Glutamate/malate driven respiration State 3 ([10]; 2.5-fold Cmax): 1.57 ± 0.06
- Glutamate/malate driven respiration State 4 ([10]; 2.5-fold Cmax): 4.92 ± 0.09
- Succinate-driven respiration State 3 ([10]; 2.5-fold Cmax): 0.62 ± 0.05
- Succinate-driven respiration State 4 ([10]; 2.5-fold Cmax): 1.43 ± 0.06
- Glutamate/malate driven respiration State 4 ([10]; 5-fold Cmax): 3.69 ± 0.12
- Succinate-driven respiration State 3 ([10]; 5-fold Cmax): 0.40 ± 0.01
- Succinate-driven respiration State 4 ([10]; 5-fold Cmax): 1.03 ± 0.08
- Glutamate/malate driven respiration State 3 ([10]; 10-fold Cmax): 0.93 ± 0.34
- Glutamate/malate driven respiration State 4 ([10]; 10-fold Cmax): 5.00 ± 1.92
- Succinate-driven respiration State 3 ([10]; 10-fold Cmax): 1.03 ± 0.19
- Succinate-driven respiration State 4 ([10]; 10-fold Cmax): 3.34 ± 0.45
- effect on state 4 respiration ([10]; highest tested concentrations): significant increases
- lowest concentration significantly affecting mitochondrial oxygen consumption ([10]; tested at 1 to 100-fold Cmax): equal to Cmax
- RCC activity I ([12]; 5-fold Cmax, DMSO-treated = 100): 87.23 ± 10.61 % of control
- RCC activity I ([12]; 10-fold Cmax, DMSO-treated = 100): 85.45 ± 11.93 % of control
